The source of these data is patent US8093240B2, “Triazole derivatives” (Merck Patent GmbH, priority 2005, dated 2012).

The test system of this assay is TGF-beta. Put plainly: Elimination of TGF-beta-mediated growth inhibition in Mv1Lu cells (Crystal Violet staining). Format: cell-based. To be noted: 48 h; lung epithelial cell line Mv1Lu, 1 ng/ml TGF-beta, 0.5% FCS, two days. Here is the method:
In-Vitro (Enzyme) Assay for Determination of the Efficacy of Inhibitors of the Inhibition of TGF-Beta-Mediated Effects
As an example, the ability of the inhibitors to eliminate TGF-beta-mediated growth inhibition is tested.
Cells of the lung epithelial cell line Mv1Lu are sown in a defined cell density in a 96-well microtitre plate and cultivated overnight under standard conditions. Next day, the medium is replaced by medium which comprises 0.5% of FCS and 1 ng/ml of TGF-beta, and the test sub-stances are added in defined concentrations, generally in the form of dilution series with 5-fold steps. The concentration of the solvent DMSO is constant at 0.5%. After a further two days, Crystal Violet staining of the cells is carried out. After extraction of the Crystal Violet from the fixed cells, the absorption is measured spectrophotometrically at 550 nm. It can be used as a quantitative measure of the adherent cells present and thus of the cell proliferation during the culture.
With `Cc1cccc(-c2nnc3n2-c2ccc(O)cc2NCC3C)n1` (racemic) [Compound A1, (R,S)-8-hydroxy-4-methyl-1-(6-methylpyridin-2-yl)-5,6-dihydro-4H-2,3,6,10btetraazabenzo[e]azulene], it took 0.18 µM to reach half-maximal inhibition (IC50). In the case of `CC1CNc2cc(O)ccc2-n2c(-c3cccc(Cl)c3)nnc21` (racemic) [Compound A2, (R,S)-1-(3-Chlorophenyl)-4-methyl-5,6-dihydro-4H-2,3,6,10b-tetraazabenzo[e]azulen-8-ol] it was 0.97 µM. In the case of `Cc1cccc(-c2nnc3n2-c2ccc(Cl)cc2NCC3C)n1` (racemic) [Compound A3, (R,S)-8-Chloro-4-methyl-1-(6-methylpyridin-2-yl)-5,6-dihydro-4H-2,3,6,10b-tetraazabenzo[e]azulene] it was 3.5 µM; in that of `COc1ccc2c(c1)NCC(C)c1nnc(-c3cccc(C)n3)n1-2` (racemic) [Compound A5, (R,S)-8-Methoxy-4-methyl-1-(6-methylpyridin-2-yl)-5,6-dihydro-4H-2,3,6,10b-tetraazabenzo[e]azulene], 2.4 µM.

As for `COc1cccc(-c2nnc3n2-c2ccc(OC)cc2NCC3C)c1` (racemic) [Compound A6, (R,S)-8-Methoxy-1-(3-methoxyphenyl)-4-methyl-5,6-dihydro-4H-2,3,6,10b-tetraazabenzo[e]azulene], half-maximal inhibition (IC50) required 3.9 µM. Under `COc1ccc2c(c1)NCC(C)c1nnc(-c3cc(Cl)ccc3F)n1-2` (racemic) [Compound A8, (R,S)-1-(5-Chloro-2-fluorophenyl)-8-methoxy-4-methyl-5,6-dihydro-4H-2,3,6,10b-tetraazabenzo[e]azulene] stands 6.6 µM. In the case of `CC1CNc2cc(O)ccc2-n2c(-c3cc(Cl)ccc3F)nnc21` (racemic) [Compound A9, (R,S)-1-(5-Chloro-2-fluorophenyl)-4-methyl-5,6-dihydro-4H-2,3,6,10b-tetraazabenzo[e]azulene-8-ol] it was 0.91 µM. As to `CCOc1cccc(-c2nnc3n2-c2ccc(Cl)cc2NCC3C)c1` (racemic) [Compound A10, (R,S)-8-Chloro-1-(3-ethoxyphenyl)-4-methyl-5,6-dihydro-4H-2,3,6,10b-tetraazabenzo[e]azulene], inhibition was half-maximal at 5.7 µM (IC50).

Consider `COc1cccc(-c2nnc3n2-c2ccc(Cl)cc2NCC3C)c1` (racemic) [Compound B1, (R,S)-8-Chloro-1-(3-methoxyphenyl)-4-methyl-5,6-dihydro-4H-2,3,6,10b-tetraazabenzo[e]azulene], for which it took 7 µM to reach half-maximal inhibition (IC50). Under `Cc1cccc(-c2nnc3n2-c2ccc(Cl)cc2NC[C@@H]3C)n1` [Compound A4, (+)-(S)-8-Chloro-4-methyl-1-(6-methylpyridin-2-yl)-5,6-dihydro-4H-2,3,6,10b-tetraazabenzo[e]azulene] stands 3.8 µM; under `Cc1cccc(-c2nnc3n2-c2ccc(O)cc2NCC3)n1` [Compound A7, 1-(6-Methylpyridin-2-yl)-5,6-dihydro-4H-2,3,6,10b-tetraazabenzo[e]azulen-8-ol], 2.2 µM. Under `Cc1cccc(-c2nnc3n2-c2ccc(O)cc2NC(C)C3)n1` (stereo not shown) [Compound A78, 5-Methyl-1-(6-methylpyridin-2-yl)-5,6-dihydro-4H-2,3,6,10b-tetraazabenzo[e]azulen-8-ol] stands 0.15 µM; under `Cc1cccc(-c2nnc3n2-c2cc(NC(=O)C(C)(C)C)ccc2NCC3C)n1` (stereo not shown) [Compound A80, 2,2-Dimethyl-N-[4-methyl-1-(6-methylpyridin-2-yl)-5,6-dihydro-4H-2,3,6,10b-tetraazabenzo[e]azulen-9-yl]propionamide], 3.3 µM.
